Test results reported in patent publication US9415084B2, “Treatment of leaky or damaged tight junctions and enhancing extracellular matrix” (Arch Biosurgery, Inc., priority 2007, dated 2016).
Values joined by “and” are separate entries in the source; they are usually repeats but may differ in a detail not shown here. Identical values can stand only once.

Assays:
[1] = tested on: femoral artery; assay: Hemostasis in a high pressure femoral artery wound; format: in vivo, rat; conditions: two cases, data not shown
Experimental: Rats were placed on their backs and the hind limb was extended to expose the medial aspect of the thigh (FIG. 4b). The skin was removed and the overlying muscles were cut to expose the femoral artery and sciatic nerve. The femoral artery was cut to produce a high pressure bleeder. With a 27 gauge needle, 200 μl of 1% RADA16-I (SEQ ID NO: 60) (NHS-1) solution was applied over the site of injury. In two cases powder was applied to the injury site which also worked. (Data not shown and was not included in the analysis). Controls were treated with a combination of saline and pressure with a […]. All animals were sacrificed four hours after the experiment. The femoral artery of 14 adult rats was surgically exposed, transected and then treated with 200 μl of 1% solution of NHS-1 or iced saline and packing. The treated cases (n=10) took about 10 seconds to achieve hemostasis (FIG. 3a). The controls (n=4) continued to bleed more than 6 minutes. The difference in times to achieve complete hemostasis was highly significant (Student t test p<0.0001).

[2] = tested on: brain, lung, or liver; assay: Examination of treated animals for thrombi; format: in vivo
[3] = tested on: spinal cord; assay: Hemostasis in a spinal cord injury (T2 hemisection); format: in vivo, rat; conditions: adult rats, 20 μl of 1% solution
Experimental: Under an operating microscope, the second thoracic spinal cord segment (T2) was identified before performing a dorsal laminectomy in anesthetized adult rats. After opening the dura mater, a right hemisection was performed using a ceramic knife. Immediately after the cord hemisection 20 μl of 1% solution of RADA16-I (SEQ ID NO: 60) (NHS-1) was applied to the area of the cut for bleeding control. The controls received a saline treatment. The animals were allowed to survive for up to 8 weeks as part of another experiment. The spinal environment and the brain environment were investigated for similarities or differences. Secondary damage caused by surgery can be reduced by quickly bringing bleeding under control. After laminectomy and removal of the dura, the spinal cord was hemisected at T2, from the dorsal to ventral aspect and treated (N=5) with 20 μl of 1% NHS-1. […] In the saline controls (n=5) it took on average 163 seconds to stop bleeding (FIG. 3a).

[4] = tested on: liver; assay: Hemostasis in liver transverse cut severing a branch of the portal vein; format: in vivo; conditions: rat liver transverse cut
Experimental: Rats were anesthetized and placed on their back and the abdomen was opened exposing the liver (FIG. 4c). The left lobe of the liver was cut using a scalpel in the rostral to caudal direction separating the two halves of the lobe in the sagittal cut. With a 27 gauge needle, 100 μl of 1% or 2%, of RADA16-I (SEQ ID NO: 60) (NHS-1), RADA-12 (NHS-2), or EAK-16 (TM-3) solution was applied to the site of injury. Livers of the controls were treated with saline or cauterized. Cauterization was performed using a thermal cautery device and was applied to entire surface of the injury. In another group of adult rats the same procedure was followed for the liver, which was cut transversely (FIG. 4d). With a 27 gauge needle, 400 μl of 1%, 2%, 3%, or 4% of NHS-1, or TM-3 solution was applied to the site of injury.
In the second experiment a major branch of the portal vein was severed while making a transverse cut in the left lobe to test NHS-1 in a high flow rate environment. Four concentrations of NHS-1 were tested (n=12) along with (n=4) control animals. 400 μl of 4% concentration NHS-1 was applied and bleeding stopped in 11 seconds. The test was successfully duplicated with 400 μl of both 3% and 2% NHS-1 solution; bleeding ceased in 10 and 10.3 seconds, respectively (FIG. 3d). When 400 μl of 1% NHS-1 was applied, bleeding continued for more than 60 seconds (FIG. 3d). The controls, however, bled for over 6 minutes. […] A significant difference was found between the NHS-1 treated and control groups using ANOVA.
The increased blood flow from the portal vein after making a transverse liver cut allowed the performance of another dose response experiment where various concentrations of NHS-1 (1% to 4%) and TM-3 (1% to 3%) could be compared with controls (FIG. 3d). All concentrations of NHS-1 were effective; however the higher blood pressure and flow rate after the transverse liver cut required a concentration of 2% or higher of NHS-1 to stop bleeding in less than 15 seconds.

[5] = tested on: brain; conditions: rat, in vivo
Experimental: (§1) In the brain and liver of anesthetized adult rats 1% or 2% of NHS-1 was injected immediately after making a cut and the treatment site was sampled. Samples were fixed in a mixture of 2% para-formaldehyde and 2.5% glutaraldehyde in 0.1M PB for 4 hours. The samples were washed in 0.1M PB buffer 10 min×3 at 4° C. and embedded in 2% agar. Agar blocks were post fixed in 1% osmium tetroxide for 2 hrs at 4° C. and then washed in buffer for 10 min×3 at 4° C. The sample blocks were dehydrated in ethanol infiltrated and embedded in pure epon with Lynx EM tissue processor. Ultra-thin 70 nm sections were cut (Reichert-Jung ultra cut) and collected on #200 mesh grids. Sections and grids were stained with uranyl acetate and lead citrate and examined under Philip EM208S transmission electron microscope.

[6] = tested on: liver; assay: Hemostasis in liver 4 mm punch biopsy; format: in vivo; conditions: rats allowed to survive for up to 6 months after 3% treatment
Experimental: In another group of anesthetized adult rats, the liver was exposed and a 4 mm punch biopsy from the ventral aspect through the liver to the dorsal surface of the left liver lobe. The resulting core was removed from the liver and one of three treatments was applied. In one treatment, 200 μl of a 3% NHS-1 solution was applied to the site of injury. In one control saline was applied to the site of injury. In a second control, the injury surface was cauterized. The superficial material was then wiped clear of the injury site. […]
In the third experiment using adult rats (n=45) 4 mm holes were punched through the left lateral lobe and then the area was treated with 3% NHS-1, saline or heat cautery to bring about hemostasis (FIG. 3b). […] In the heat cautery control group (n=15) cessation of bleeding took more than 60 seconds, inclusive of applying heat to cauterize the inside surface of the punch. […] Using ANOVA there was a significant difference between the 3% NHS-1 treatment and the controls (p<0.0001).

[7] = tested on: liver; conditions: rat, in vivo
Experimental: as §1
Still looking for mechanism clues as well as further understanding of the relationship of the NHS-1 blood/tissue interface in both the brain and liver, the treated tissues were examined under the transmission electron microscope (TEM), to determine how the red blood cells (RBCs), platelets, tissue and the ECM interact with the material.
A 1% NHS-1 solution was applied to a liver wound and immediately harvested the tissue.

Substance: n-RADARADARADARADA-c [NHS-1]
- hemostasis with powder applied to the injury site [1]: also worked
- thrombi in the brain, lung, or liver [2]: no evidence of thrombi
- time to hemostasis [3]: 7.6 s
- hemostasis after removing the excess assembled material ([4]; 2%, 3% and 4% concentration): complete hemostasis was maintained
- time to hemostasis ([4]; 400 μl of 2% solution): 10.3 s and 10.3 ± 0.5 s
- time to hemostasis ([4]; 400 μl of 3% solution): 10 s and 10.0 ± 1.0 s
- time to hemostasis ([4]; 400 μl of 4% solution): 11 s and 11.0 ± 1.0 s
- concentration required for complete hemostasis in less than 15 seconds ([4]; higher blood pressure/flow rate): ≥ 2%
- hemostatic effectiveness over the concentrations tested ([4]; NHS-1 1% to 4%, TM-3 1% to 3%): effective
- lysing of RBCs at the edges of the assembled material [5]: no evidence of lysing
- platelet aggregation in the assembled material [5]: no evidence of platelet aggregation
- effect on the tissues in surviving animals [6]: no detrimental effect on the tissues
- lysing of RBCs at the interface [7]: no evidence of lysing
- platelet aggregation at the blood/NHS-1 interface [7]: no evidence of platelet aggregation
